Reference: patent publication US20250002487A1, “HETEROCYCLIC COMPOUNDS AND USES THEREOF” (Ventus Therapeutics U.S., Inc., priority 2021, published 2025)

Target: human-cGAS (h-cGAS) (Homo sapiens, UniProt Q8N884)
Assay: hcGAS Kinase-Glo Assay
Type: biochemical
Conditions: 40 nM h-cGAS, 100 μM ATP, 100 μM GTP, 25 nM dsDNA, 3 h incubation, read-out: hcGAS potency IC50
Outline: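 Kinase-Glo luminescent read-out of human cGAS activity, following the published Lama et al. (2019) protocol with slightly altered conditions. Inhibition reported as IC50.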

Sequence of human-cGAS (h-cGAS) (Q8N884 whole entry): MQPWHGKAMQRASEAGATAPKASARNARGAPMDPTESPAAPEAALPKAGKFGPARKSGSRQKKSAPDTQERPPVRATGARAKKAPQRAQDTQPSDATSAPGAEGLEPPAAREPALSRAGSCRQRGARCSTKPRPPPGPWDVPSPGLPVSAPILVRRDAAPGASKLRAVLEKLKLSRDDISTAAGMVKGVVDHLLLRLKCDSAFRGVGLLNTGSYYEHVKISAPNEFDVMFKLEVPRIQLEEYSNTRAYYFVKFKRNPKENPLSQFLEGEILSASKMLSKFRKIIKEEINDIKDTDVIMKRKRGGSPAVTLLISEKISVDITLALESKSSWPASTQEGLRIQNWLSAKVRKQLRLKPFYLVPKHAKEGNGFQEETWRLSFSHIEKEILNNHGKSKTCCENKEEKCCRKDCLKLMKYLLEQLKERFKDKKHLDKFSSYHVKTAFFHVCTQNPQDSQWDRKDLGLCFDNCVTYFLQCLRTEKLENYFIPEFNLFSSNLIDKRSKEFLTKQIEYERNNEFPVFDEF

CSc1nnc(NC(=O)c2nnc(N3CCCC(C)(C)C3)o2)s1 [Compound 119, 5-(3,3-dimethylpiperidin-1-yl)-N-(5-(methylthio)-1,3,4-thiadiazol-2-yl)-1,3,4-oxadiazole-2-carboxamide]
IC50: 500 to 1000 nM

CSc1nnc(NC(=O)c2nnc(N3CCC(C)(C)CC3)o2)s1 [Compound 120, 5-(4,4-dimethylpiperidin-1-yl)-N-(5-(methylthio)-1,3,4-thiadiazol-2-yl)-1,3,4-oxadiazole-2-carboxamide]
IC50: 500 to 1000 nM

CSc1nnc(NC(=O)c2nnc(N3CCCC3c3ccccc3)o2)s1 (stereo not drawn) [Compound 123, N-(5-(methylthio)-1,3,4-thiadiazol-2-yl)-5-(2-phenylpyrrolidin-1-yl)-1.3,4-oxadiazole-2-carboxamide]
IC50: 100 to 500 nM

CSc1nnc(NC(=O)c2nnc(N3CCNC(=O)C3)o2)s1 [Compound 124, N-(5-(methylthio)-1,3,4-thiadiazol-2-yl)-5-(3-oxopiperazin-1-yl)-1,3,4-oxadiazole-2-carboxamide]
IC50: ≥ 1000 nM

CSc1nnc(NC(=O)c2nnc(N3CCC[C@@H]3c3ccccc3)o2)s1 [Compound 125, (R)-N-(5-(methylthio)-1,3,4-thiadiazol-2-yl)-5-(2-phenylpyrrolidin-1-yl)-1,3,4-oxadiazole-2-carboxamide]
IC50: 100 to 500 nM

CSc1nnc(NC(=O)c2nnc(N3CCC[C@H]3c3ccccc3)o2)s1 [Compound 126, (S)-N-(5-(methylthio)-1,3,4-thiadiazol-2-yl)-5-(2-phenylpyrrolidin-1-yl)-1,3,4-oxadiazole-2-carboxamide]
IC50: 500 to 1000 nM

O=C(Nc1nnc(-c2cscn2)s1)c1onc2ccccc12 [Compound 127, N-(5-(thiazol-4-yl)-1,3,4-thiadiazol-2-yl)benzo[c]isoxazole-3-carboxamide]
IC50: 500 to 1000 nM

O=C(Nc1nnc(-c2cncs2)s1)c1onc2ccccc12 [Compound 128, N-(5-(thiazol-5-yl)-1,3,4-thiadiazol-2-yl)benzo[c]isoxazole-3-carboxamide]
IC50: ≥ 1000 nM

O=C(Nc1nnc(-c2c[nH]cn2)s1)c1onc2ccccc12 [Compound 129, N-[5-(1H-imidazol-4-yl)-1,3,4-thiadiazol-2-yl]-2,1-benzoxazole-3-carboxamide]
IC50: ≥ 1000 nM

O=C(Nc1nnc(-c2cnccn2)s1)c1onc2ccccc12 [Compound 130, N-[5(pyrazin-2-yl)-1,3,4-thiadiazol-2-yl]-2,1-benzoxazole-3-carboxamide]
IC50: 500 to 1000 nM

O=C(Nc1nnc(-c2nccs2)s1)c1onc2ccccc12 [Compound 131, N-(5-(thiazol-2-yl)-1,3,4-thiadiazol-2-yl)benzo[c]isoxazole-3-carboxamide]
IC50: 100 to 500 nM

O=C(O)Cc1nnc(NC(=O)c2onc3ccccc23)s1 [Compound 132, [5-(2,1-benzoxazole-3-amido)-1,3,4-thiadiazol-2-yl]acetic acid]
IC50: ≥ 1000 nM

CSc1nnc(NC(=O)c2nnn(Cc3ccccn3)n2)s1 [Compound 133, N-[5-(methylthio)-1,3,4-thiadiazol-2-yl]-2-(pyridin-2-ylmethyl)-1,2,3,4-tetrazole-5-carboxamide]
IC50: ≥ 1000 nM

CSc1nnc(NC(=O)c2nnn(Cc3ccccc3)n2)s1 [Compound 134, 2-benzyl-N-(5-(methylthio)-1,3,4-thiadiazol-2-yl)-2H-tetrazole-5-carboxamide]
IC50: ≥ 1000 nM

CSc1nnc(NC(=O)c2nnn(Cc3cccnc3)n2)s1 [Compound 135, N-(5-(methylthio)-1,3,4-thiadiazol-2-yl)-2-(pyridin-3-ylmethyl)-2H-tetrazole-5-carboxamide]
IC50: ≥ 1000 nM

CSc1nnc(NC(=O)c2nnn(-c3ccccn3)n2)s1 [Compound 136, N-(5-(methylthio)-1,3,4-thiadiazol-2-yl)-2-(pyridin-2-yl)-2H-tetrazole-5-carboxamide]
IC50: 500 to 1000 nM

CSc1nnc(NC(=O)c2nnn(-c3cccnc3)n2)s1 [Compound 137, N-(5-(methylthio)-1,3,4-thiadiazol-2-yl)-2-(pyridin-3-yl)-2H-tetrazole-5-carboxamide]
IC50: ≥ 1000 nM

CSc1nnc(NC(=O)c2nnn(-c3ccccc3F)n2)s1 [Compound 138, 2-(2-fluorophenyl)-N-[5-(methylsulfanyl)-1,3,4-thiadiazol-2-yl]-1,2,3,4-tetrazole-5-carboxamide]
IC50: 500 to 1000 nM

CSc1nnc(NC(=O)c2cc(-c3ccsc3)no2)s1 [Compound 139, N-[5-(methylsulfanyl)-1,3,4-thiadiazol-2-yl]-3-(thiophen-3-yl)-1,2-oxazole-5-carboxamide]
IC50: 500 to 1000 nM

CSc1nnc(NC(=O)c2cc(-c3ccns3)no2)s1 [Compound 140, N-[5-(methylsulfanyl)-1,3,4-thiadiazol-2-yl]-3-(1,2-thiazol-5-yl)-1,2-oxazole-5-carboxamide]
IC50: ≥ 1000 nM

CSc1nnc(NC(=O)c2cc(-c3cncs3)no2)s1 [Compound 141, N-(5-(methylthio)-1,3,4-thiadiazol-2-yl)-3-(thiazol-5-yl)isoxazole-5-carboxamide]
IC50: ≥ 1000 nM

CSc1nnc(NC(=O)c2cc(-c3nccs3)no2)s1 [Compound 142, N-(5-(methylthio)-1,3,4-thiadiazol-2-yl)-3-(thiazol-2-yl)isoxazole-5-carboxamide]
IC50: 500 to 1000 nM

O=C(Nc1nnc(-c2ccccc2C(F)(F)F)s1)c1onc2ccccc12 [Compound 143, N-(5-(2-(trifluoromethyl)phenyl)-1,3,4-thiadiazol-2-yl)benzo[c]iso-xazole-3-carboxamide]
IC50: 100 to 500 nM

O=C(Nc1nnc(-c2ccccc2Br)s1)c1onc2ccccc12 [Compound 144, N-[5-(2-bromophenyl)-1,3,4-thiadiazol-2-yl]-2,1-benzoxazole-3-carboxamide]
IC50: 100 to 500 nM

O=C(Nc1nnc(-c2cn[nH]c2)s1)c1onc2ccccc12 [Compound 145, N-(5-(1H-pyrazol-4-yl)-1,3,4-thiadiazol-2-yl)benzo[c]isoxazole-3-carboxamide]
IC50: ≥ 1000 nM

Cn1nccc1-c1nnc(NC(=O)c2onc3ccccc23)s1 [Compound 146, N-(5-(1-methyl-1H-pyrazol-5-yl)-1,3,4-thiadiazol-2-yl)benzo[c]isoxazole-3-carboxamide]
IC50: ≥ 1000 nM

O=C(Nc1nnc(-c2ccccc2C(F)F)s1)c1onc2ccccc12 [Compound 147, N-(5-(2-(difluoromethyl)phenyl)-1,3,4-thiadiazol-2-yl)benzo[c]isoxazole-3-carboxamide]
IC50: 500 to 1000 nM

O=C(Nc1nnc(-c2ncccn2)s1)c1onc2ccccc12 [Compound 148, N-(5-(pyrimidin-2-yl)-1,3,4-thiadiazol-2-yl)benzo[c]isoxazole-3-carboxamide]
IC50: ≥ 1000 nM

CSc1nnc(NC(=O)c2nnc(N3CCCCC3c3ccccc3)o2)s1 (stereo not drawn) [Compound 149, N-(5-(methylthio)-1,3,4-thiadiazol-2-yl)-5-(2-phenylpiperidin-1-yl)-1,3,4-oxadiazole-2-carboxamide]
IC50: 500 to 1000 nM

CSc1nnc(NC(=O)c2cc(-c3nccc4ccccc34)no2)s1 [Compound 150, 3-(Isoquinolin-1-yl)-N-(5-(methylthio)-1,3,4-thiadiazol-2-yl)isoxazole-5-carboxamide]
IC50: 500 to 1000 nM

CSc1nnc(NC(=O)c2cc(-c3cccc(F)c3F)no2)s1 [Compound 151, 3-(2,3-Difluorophenyl)-N-(5-(methylthio)-1,3,4-thiadiazol-2-yl)isoxazole-5-carboxamide]
IC50: 500 to 1000 nM

CSc1nnc(NC(=O)c2cc(-c3ncccn3)no2)s1 [Compound 152, N-(5-(Methylthio)-1,3,4-thiadiazol-2-yl)-3-(pyrimidin-2-yl)isoxazole-5-carboxamide]
IC50: 100 to 500 nM

CSc1nnc(NC(=O)c2cc(-c3ncc4ccccc4n3)no2)s1 [Compound 153, N-(5-(Methylthio)-1,3,4-thiadiazol-2-yl)-3-(quinazolin-2-yl)isoxazole-5-carboxamide]
IC50: 100 to 500 nM

O=C(Nc1nnc(-c2ccccc2Cl)s1)c1cc(-c2ncccn2)no1 [Compound 154, N-(5-(2-Chlorophenyl)-1,3,4-thiadiazol-2-yl)-3-(pyrimidin-2-yl)isoxazole-5-carboxamide]
IC50: 100 to 500 nM

O=C(Nc1nnc(-c2ccccc2Cl)s1)c1cc(-c2ncc3ccccc3n2)no1 [Compound 155, N-(5-(2-Chlorophenyl)-1,3,4-thiadiazol-2-yl)-3-(quinazolin-2-yl)isoxazole-5-carboxamide]
IC50: 100 to 500 nM

O=C(Nc1nnc(-c2ccccc2Cl)s1)c1cc(-c2ncc(F)cn2)no1 [Compound 156, N-(5-(2-Chlorophenyl)-1,3,4-thiadiazol-2-yl)-3-(5-fluoropyrimidin-2-yl)isoxazole-5-carboxamide]
IC50: 100 to 500 nM

Cc1ccnc(-c2cc(C(=O)Nc3nnc(-c4ccccc4Cl)s3)on2)n1 [Compound 157, N-(5-(2-Chlorophenyl)-1,3,4-thiadiazol-2-yl)-3-(4-methylpyrimidin-2-yl)isoxazole-5-carboxamide]
IC50: 100 to 500 nM

Cc1cnc(-c2cc(C(=O)Nc3nnc(-c4ccccc4Cl)s3)on2)nc1 [Compound 158, N-(5-(2-Chlorophenyl)-1,3,4-thiadiazol-2-yl)-3-(5-methylpyrimidin-2-yl)isoxazole-5-carboxamide]
IC50: 100 to 500 nM

CSc1nnc(NC(=O)c2onc3ccc(Cc4ccccc4)cc23)s1 [Compound 159, 5-Benzyl-N-(5-(methylthio)-1,3,4-thiadiazol-2-yl)benzo[c]isoxazole-3-carboxamide]
IC50: 500 to 1000 nM

COc1ccc(Cc2ccc3noc(C(=O)Nc4nnc(SC)s4)c3c2)cc1 [Compound 160, 5-(4-Methoxybenzyl)-N-(5-(methylthio)-1,3,4-thiadiazol-2-yl)benzo[c]isoxazole-3-carboxamide]
IC50: 500 to 1000 nM

COc1cccc(Cc2ccc3noc(C(=O)Nc4nnc(SC)s4)c3c2)c1 [Compound 161, 5-(3-methoxybenzyl)-N-(5-(methylthio)-1,3,4-thiadiazol-2-yl)benzo[c]isoxazole-3-carboxamide]
IC50: 500 to 1000 nM

CSc1nnc(NC(=O)c2onc3ccc(Nc4ccccc4)cc23)s1 [Compound 162, N-(5-(methylthio)-1,3,4-thiadiazol-2-yl)-5-(phenylamino)benzo[c]isoxazole-3-carboxamide]
IC50: 500 to 1000 nM
